# What was measured:
# MCF7 [1] = experiment: MTT cell viability assay, MCF7; format: cell-based; details: Homo sapiens, MCF7, 48h treatment, mean ± S.D.
# Method: (§1) The human cancer cell lines MCF7 (HTB-22, breast adenocarcinoma), MDA-MB-231 (HTB-26, breast adenocarcinoma), HCT116 (CCL-247, colorectal carcinoma), and A549 (CRM-CCL-185, lung carcinoma) were obtained from the American Type Culture Collection (ATCC, Manassas, VA, USA). The fibroblast cell line CR9, kindly provided by Dr. Guven, was maintained in ISCOVE medium. HCT116 cells were cultured in Dulbecco’s Modified Eagle Medium (DMEM), whereas A549, MCF7, and MDA-MB-231 cells were maintained in Roswell Park Memorial Institute 1640 (RPMI-1640) medium. All media were supplemented with 10% fetal bovine serum (FBS), 1% L-glutamine, and 0.5% antibiotic mixture (penicillin, streptomycin, and neomycin). Cell cultures were maintained at 37 °C in a humidified atmosphere with 5% CO2, following standard culture protocols. Additionally, for HCT116 cells, the culture medium was further supplemented with 1% sodium pyruvate and 1% non-essential amino acids.
# (§2) To evaluate the impact of the tested PTEs on cell viability, a colorimetric MTT assay was performed as previously described. Briefly, cells were seeded in 96-well microplates at initial densities of 5 × 10^3 cells per well for the MCF7, MDA-MB231, and A549 cell lines, and 4 × 10^3 cells per well for HCT116 cells. After an initial 24 h incubation period to allow for cell attachment and growth, the cultures were treated with different concentrations of PTEs (0.25–20 µM). Following 48 h of treatment, 50 μL of MTT solution (2 mg/mL in PBS) was added to each well, and the plates were incubated at 37 °C for 3 h to allow for MTT reduction by metabolically active cells. The resulting formazan crystals were solubilized, and cell viability was measured by recording the absorbance at 570 nm using an iMark Microplate Reader (BIORAD, Segrate, Milan, Italy). The cytotoxic effectiveness of the compounds was expressed as IC50 values, which were calculated from dose–response curves fitted with non-linear regression analysis using Calcusyn version 1.1.4. software (Biosoft, Cambridge, UK).
# MDA-MB231 [2] = experiment: MTT cell viability assay, MDA-MB231; format: cell-based; details: Homo sapiens, MDA-MB-231, MDA-MB231, 48h treatment, mean ± S.D.
# Method: as §1, §2
# A549 [3] = experiment: MTT cell viability assay, A549; format: cell-based; details: Homo sapiens, A549, 48h treatment, mean ± S.D.
# Method: as §1, §2
# HCT116 [4] = experiment: MTT cell viability assay, HCT116; format: cell-based; details: Homo sapiens, HCT-116, HCT116, 48h treatment, mean ± S.D.
# Method: as §1, §2
# [5] = tested on: CR9 human fibroblast cells; experiment: MTT cell viability assay, CR9 fibroblasts; format: cell-based; details: 48h treatment, mean ± S.D.
# Method: as §1, §2
# [6] = tested on: MCF7, MDA-MB-231, A549, and HCT116 cells; experiment: MTT cell viability assay, summary across the cell line panel; format: cell-based, human; details: 48 h treatment, across tested cell lines
# Method: The fibroblast cell line CR9, kindly provided by Dr. Guven, was maintained in ISCOVE medium. […] All media were supplemented with 10% fetal bovine serum (FBS), 1% L-glutamine, and 0.5% antibiotic mixture (penicillin, streptomycin, and neomycin). Cell cultures were maintained at 37 °C in a humidified atmosphere with 5% CO2, following standard culture protocols. Additionally, for HCT116 cells, the culture medium was further supplemented with 1% sodium pyruvate and 1% non-essential amino acids.
# as §2, with “Following 48 h of treatment, 50 μL of MTT solution (2 mg/mL in PBS) was added to each well, and the plates were incubated at 37 °C for 3 h to allow for MTT reduction by metabolically active cells.” left out
# [7] = tested on: MCF7, MDA-MB231, A549 and HCT116 cells; experiment: Apoptotic cell death, flow cytometry (sub-G1, PI); format: cell-based, human; details: 48 h treatment at IC50 concentration, vs. untreated controls
# Method: (§3) The potential of the tested PTE derivatives to induce apoptotic and/or necrotic cell death, as well as to cause alterations in cell cycle distribution, was evaluated following a 48 h exposure to their respective IC50 concentrations, using flow cytometric analysis as previously described. Briefly, the indicated cell lines were seeded in 12-well plates (3 × 10^5 cells/well) and treated 24 h post-seeding. At the end of the treatment period, following harvesting, cells were washed with PBS and fixed in ice-cold 70% ethanol at −20 °C for a minimum duration of 45 min, to assess apoptotic cell death and perform cell cycle analysis. After fixation, cells were washed again with PBS and stained with a propidium iodide (PI)/RNase solution (50 µg/mL PI and 30 U/mL RNase) in PBS for 15 min at room temperature.
# (§4) Flow cytometric analysis was performed using a FACScalibur flow cytometer (Becton Dickinson, Milan, Italy), equipped with a 15 mW, 488 nm air-cooled argon ion laser. Data were acquired and analyzed with CellQuestPRO version 5.1 software. PI fluorescence was detected using a 575 nm band-pass filter. The percentage of apoptotic cells was determined by identifying sub-G1 peaks in monoparametric histograms obtained in logarithmic mode. For cell cycle distribution, PI fluorescence was also analyzed with monoparametric histograms, but data were collected in linear mode.
# HCT116 [8] = experiment: Necrotic cell death, flow cytometry (PI without fixation), HCT116; format: cell-based, human; details: HCT116, 48 h treatment at IC50 concentration
# Method: as §3, §4
# Necrotic cell death was assessed by omitting the ethanol fixation step from the staining protocol, thereby enabling propidium iodide (PI) to penetrate membrane-compromised cells, indicative of necrosis.
# MDA-MB231 [9] = experiment: Cell cycle distribution, flow cytometry, MDA-MB231; format: cell-based, human; details: MDA-MB231, 48 h at equitoxic (IC50) concentrations
# Method: as §3, §4
# HCT116 [10] = experiment: Cell cycle distribution, flow cytometry, HCT116; format: cell-based, human; details: HCT116, 48 h at equitoxic (IC50) concentrations
# Method: as §3, §4
# MDA-MB231 [11] = experiment: Intracellular ROS levels (DCFH-DA), MDA-MB231; format: cell-based, human; details: MDA-MB231, 48 h at IC50 concentration, vs. CTR
# Method: (§5) Intracellular ROS levels were quantified using 2′,7′-dichlorodihydrofluorescein diacetate (DCFH-DA) as a fluorescent probe. After 48 h of treatment, cells were collected, rinsed with PBS, and incubated in a PBS solution containing 10 µM DCFH-DA. Following incubation, fluorescence corresponding to oxidized fluorescein was measured using a 530 nm band-pass filter. ROS production was expressed in arbitrary units based on the median fluorescence intensity (MFI).
# [12] = tested on: MCF7, MDA-MB231, A549 and HCT116 cells; experiment: Intracellular ROS levels (DCFH-DA), summary across cell lines; format: cell-based, human; details: 48 h at IC50 concentration, four cell lines
# Method: as §5
# [13] = tested on: MCF7, MDA-MB231, A549 and HCT116 cell lines; experiment: Hydrosulfide production (DNS-N3 probe), summary across cell lines; format: cell-based, human; details: 48 h at IC50 concentration, all cell lines
# Method: (§6) PTEs-induced sulfide production was evaluated using dansyl azide (DNS-N3) as a probe. DNS-N3 is non-fluorescent itself, while in the presence of hydrosulfide, the azide transforms into the dansyl amide and fluorescence is switched on. After 48 h of treatment, cells were harvested, washed with PBS, and incubated in a PBS solution containing 200 μM DNS-N3. Following 30 min incubation at 37 °C, fluorescence increase was measured through a 575 nm band-pass filter. The levels of hydrosulfide production were assessed and reported in arbitrary units, calculated from the median fluorescence intensity (MFI) measurements. For all flow cytometric analyses, untreated cells (i.e., not exposed to PTE compounds) were used as negative controls.
# MCF7 [14] = experiment: Intracellular ROS levels (DCFH-DA), MCF7; format: cell-based, human; details: MCF7, 48 h at IC50 concentration, vs. CTR
# Method: as §5
# HCT116 [15] = experiment: Hydrosulfide production (DNS-N3 probe), HCT116; format: cell-based, human; details: HCT116, 48 h at IC50 concentration
# Method: as §6
# MCF7 [16] = experiment: Cell cycle distribution, flow cytometry, MCF7; format: cell-based, human; details: MCF7, 48 h at equitoxic (IC50) concentrations
# Method: as §3, §4
# A549 [17] = experiment: Cell cycle distribution, flow cytometry, A549; format: cell-based, human; details: A549, 48 h at equitoxic (IC50) concentrations
# Method: as §3, §4
# HCT116 [18] = experiment: Intracellular ROS levels (DCFH-DA), HCT116; format: cell-based, human; details: HCT116, 48 h at IC50 concentration, vs. CTR
# Method: as §5
Structure (SMILES),IC50 (MCF7 [1]) [nM],IC50 (MDA-MB231 [2]) [nM],IC50 (A549 [3]) [nM],IC50 (HCT116 [4]) [nM],IC50 [5] [nM],cytotoxic potency (in words) [6],apoptotic cell death [7],necrosis relative to apoptosis (HCT116 [8]),cell cycle shift: decrease in the G0/G1 phase population with G2/M phase accumulation (MDA-MB231 [9]),cell cycle shift: decrease in the G0/G1 phase population with G2/M phase accumulation (HCT116 [10]),increase in ROS production (MDA-MB231 [11]),ROS production (ranking in words) [12],sulfide production (in words) [13],cytotoxic potency (in words) ([6]; listed as 2^PG),cytotoxic potency (in words) ([6]; listed as 2^Ph),increase in ROS production (MCF7 [14]),sulfide increase (HCT116 [15]),cell cycle shift: decrease in the G0/G1 phase population with G2/M phase accumulation (MCF7 [16]),cell cycle shift: decrease in the G0/G1 phase population with G2/M phase accumulation (A549 [17]),increase in ROS production (HCT116 [18])
OCCOc1c2c(c3ccccn13)SSSSS2 [2^Gly],1130 ± 20,300 ± 30,790 ± 60,603 ± 40,1610 ± 130,highest cytotoxic potency,most potent inducers of apoptosis,higher levels of necrosis relative to apoptosis,triggered similar effects,triggered similar effects,statistically significant,better ROS producers,most potent inducers of sulfide production,–,–,–,–,–,–,–
"CCOc1c2c(c3ccc(C=O)cn13)SSSSS2 [3^CHO, 6-ethoxy-9-formyl-[1,2,3,4,5]pentathiepino [6,7-a]indolizine]",1700 ± 30,390 ± 40,1030 ± 40,740 ± 60,1900 ± 120,highest cytotoxic potency,most potent inducers of apoptosis,higher levels of necrosis relative to apoptosis,exerted this effect exclusively in MDA-MB231 cells,–,statistically significant,better ROS producers,most potent inducers of sulfide production,–,–,statistically significant,–,–,–,–
CCOc1c2c(c3ccc([N+](=O)[O-])cn13)SSSSS2 [3^NO2],3210 ± 130,630 ± 750,3220 ± 390,1590 ± 150,2870 ± 140,noteworthy efficacy,most potent inducers of apoptosis,–,–,–,statistically significant,–,–,–,–,statistically significant,–,–,–,–
"COc1cccc2c1C(=O)c1c(O)c3c(c(O)c1C2=O)C[C@@](O)(C(=O)CO)C[C@@H]3O[C@H]1C[C@H](N)[C@H](O)[C@H](C)O1 [doxo, doxorubicin, reference compound]",4500 ± 510,17800 ± 1960,1500 ± 210,3500 ± 600,–,–,–,–,–,–,–,–,–,–,–,–,–,–,–,–

# Further lines, with some results ahead:
IC50 (MCF7 [1]) [nM],IC50 (MDA-MB231 [2]) [nM],IC50 (A549 [3]) [nM],IC50 (HCT116 [4]) [nM],Structure (SMILES),IC50 [5] [nM],cytotoxic potency (in words) [6],apoptotic cell death [7],necrosis relative to apoptosis (HCT116 [8]),cell cycle shift: decrease in the G0/G1 phase population with G2/M phase accumulation (MDA-MB231 [9]),cell cycle shift: decrease in the G0/G1 phase population with G2/M phase accumulation (HCT116 [10]),increase in ROS production (MDA-MB231 [11]),ROS production (ranking in words) [12],sulfide production (in words) [13],cytotoxic potency (in words) ([6]; listed as 2^PG),cytotoxic potency (in words) ([6]; listed as 2^Ph),increase in ROS production (MCF7 [14]),sulfide increase (HCT116 [15]),cell cycle shift: decrease in the G0/G1 phase population with G2/M phase accumulation (MCF7 [16]),cell cycle shift: decrease in the G0/G1 phase population with G2/M phase accumulation (A549 [17]),increase in ROS production (HCT116 [18])
4770 ± 140,1450 ± 40,2540 ± 270,2270 ± 340,Cc1c2c(c3ccccn13)SSSSS2 [2^Me],7910 ± 320,noteworthy efficacy,most potent inducers of apoptosis,higher levels of necrosis relative to apoptosis,triggered similar effects,triggered similar effects,statistically significant,better ROS producers,most potent inducers of sulfide production,highest cytotoxic potency,lowest cytotoxic activity,statistically significant,did not induce sulfide increase,–,–,–
2680 ± 310,630 ± 40,1540 ± 80,830 ± 40,CCOc1c2c(c3ccccn13)SSSSS2 [compound 1],7320 ± 150,noteworthy efficacy,most potent inducers of apoptosis,–,induced this characteristic cell cycle shift,induced this characteristic cell cycle shift,statistically significant,better ROS producers,most potent inducers of sulfide production,–,–,statistically significant,–,induced this characteristic cell cycle shift,induced this characteristic cell cycle shift,statistically significant

# From paper PMC12293604, “Anticancer Effect of Nature-Inspired Indolizine-Based Pentathiepines in 2D and 3D Cellular Model” (Cancers, 2025)
